Activity calls are given as the source filed them.
Key:
[1] = NIH-3T3 fibroblast cytotoxicity, dose response, cytotoxicity control, cell-based, fluorescence, Alamar Blue, secondary assay (AID 2327); assay type: functional;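 note: NIH-3T3 mouse fibroblasts cultured with fluconazole at 8 µg/mL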
[2] = C. albicans growth with fluconazole, confirmation, fluorescence, retest (AID 2467); assay type: functional, cell-based
[3] = microbe, parasite or virus in culture; assay type: functional; conditions: Mycobacterium tuberculosis
Bcl-2-related protein A1 = target: T1, Bcl-2-related protein A1 (Mus musculus, UniProt Q07440); assay type: functional;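 note: confirmatory dose–response counterscreen on Bfl-1, used to check hits from a UBC13 polyubiquitin inhibitor campaign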
T1 sequence (Q07440 whole entry): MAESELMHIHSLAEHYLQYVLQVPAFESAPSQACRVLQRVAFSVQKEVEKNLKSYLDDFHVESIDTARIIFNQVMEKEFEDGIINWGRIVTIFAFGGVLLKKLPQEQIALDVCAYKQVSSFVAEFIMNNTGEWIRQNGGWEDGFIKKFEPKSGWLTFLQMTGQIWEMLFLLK

Jurkat = experiment: antigen receptor-induced NF-kB inhibitors, dose response, Jurkat, luciferase reporter, luminescence, B- and T-cell (AID 489004); assay type: functional, cell-based; conditions: Homo sapiens;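 note: NF-kB luciferase reporter Jurkat cells stimulated with PMA plus ionomycin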
[4] = target: T2, Ubiquitin-conjugating enzyme E2 N (Homo sapiens, UniProt P61088); assay type: functional
T2 sequence (P61088 whole entry): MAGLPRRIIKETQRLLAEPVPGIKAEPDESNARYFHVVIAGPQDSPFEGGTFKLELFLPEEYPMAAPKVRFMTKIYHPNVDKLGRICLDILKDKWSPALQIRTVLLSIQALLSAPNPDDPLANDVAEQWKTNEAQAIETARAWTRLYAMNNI

[5] = cytotoxicity in HEK-293T NF-kB-Luc cells, dose response, cytotoxicity control for B/T-cell NF-kB inhibitor project, cell-based, uHTS hits (AID 489019); assay type: functional;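 note: IC50 reflects cytotoxicity as loss of cell viability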
[6] = target: T2, Ubiquitin-conjugating enzyme E2 N; assay type: functional; remark: listed apart in the source
INS1 [7] = experiment: beta cell apoptosis inhibitors, cytokine rescue, dose response, luminescence, retest (AID 449756); assay type: functional, cell-based; conditions: Rattus norvegicus;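 note: cell death triggered by IL-1 beta plus TNF-alpha plus IFN-gamma mixture; protective hits raise ATP signal compared with cytokine alone wells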
[8] = target: Bifunctional protein GlmU (Mycobacterium tuberculosis, UniProt P9WMN3); experiment: Inhibitors of Mycobacterial Glucosamine-1-phosphate acetyl transferase (GlmU). Secondary screen.; parameters: species or system Mycobacterium tuberculosis H37Rv
[9] = target: DNA dC->dU-editing enzyme APOBEC-3A (Homo sapiens, UniProt P31941); experiment: APOBEC3A DNA deaminase inhibitors, dose response, biochemical (AID 504722); assay type: functional
[10] = target: DNA dC->dU-editing enzyme APOBEC-3G (Homo sapiens, UniProt Q9HC16); experiment: Dose Response confirmation of small molecule APOBEC3G DNA Deaminase Inhibitors via a fluorescence-based single-stranded DNA deaminase assay. [Related pubchem assays (depositor defined):AID493012, AID493028]; assay type: functional
[11] = target: T3, Apoptotic protease-activating factor 1 (Homo sapiens, UniProt O14727); experiment: activation of Apaf-1 mediated apoptosis – fluorescent, uHTS hits, dose response (AID 588554); assay type: functional
T3 sequence (O14727 whole entry): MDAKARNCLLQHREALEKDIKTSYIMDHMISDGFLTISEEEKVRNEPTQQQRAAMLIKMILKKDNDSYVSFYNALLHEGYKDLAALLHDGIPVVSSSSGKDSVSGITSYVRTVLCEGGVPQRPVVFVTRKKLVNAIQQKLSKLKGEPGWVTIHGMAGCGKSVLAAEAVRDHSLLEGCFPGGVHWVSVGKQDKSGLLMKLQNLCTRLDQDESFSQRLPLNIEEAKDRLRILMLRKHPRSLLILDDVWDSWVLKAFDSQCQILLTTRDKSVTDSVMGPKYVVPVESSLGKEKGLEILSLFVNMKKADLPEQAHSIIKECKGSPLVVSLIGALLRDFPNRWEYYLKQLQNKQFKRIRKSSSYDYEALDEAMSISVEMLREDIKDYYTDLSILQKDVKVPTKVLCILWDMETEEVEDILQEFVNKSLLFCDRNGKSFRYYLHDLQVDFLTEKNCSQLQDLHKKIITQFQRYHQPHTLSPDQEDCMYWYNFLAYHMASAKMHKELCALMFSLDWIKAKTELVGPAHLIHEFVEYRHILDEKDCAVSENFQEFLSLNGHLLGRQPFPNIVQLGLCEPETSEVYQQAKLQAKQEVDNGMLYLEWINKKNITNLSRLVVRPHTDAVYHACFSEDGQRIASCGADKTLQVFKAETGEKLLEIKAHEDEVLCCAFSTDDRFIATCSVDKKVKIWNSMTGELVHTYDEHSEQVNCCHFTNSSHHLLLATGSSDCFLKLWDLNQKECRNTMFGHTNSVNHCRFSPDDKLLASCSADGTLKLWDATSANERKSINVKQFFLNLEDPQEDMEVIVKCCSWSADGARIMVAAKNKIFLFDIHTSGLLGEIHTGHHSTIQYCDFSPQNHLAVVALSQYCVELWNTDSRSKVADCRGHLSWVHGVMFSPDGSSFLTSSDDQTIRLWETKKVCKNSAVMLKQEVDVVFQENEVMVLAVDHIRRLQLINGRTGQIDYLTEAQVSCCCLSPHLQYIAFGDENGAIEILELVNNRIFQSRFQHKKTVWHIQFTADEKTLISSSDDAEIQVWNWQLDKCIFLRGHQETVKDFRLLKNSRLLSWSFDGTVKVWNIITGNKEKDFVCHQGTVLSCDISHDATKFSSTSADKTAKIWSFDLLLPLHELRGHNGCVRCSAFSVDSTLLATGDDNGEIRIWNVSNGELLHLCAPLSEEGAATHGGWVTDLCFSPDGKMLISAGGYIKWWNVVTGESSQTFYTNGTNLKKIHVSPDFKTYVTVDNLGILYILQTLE

[12] = target: T4, Carboxy-terminal domain RNA polymerase II polypeptide A small phosphatase 1 (Homo sapiens, UniProt Q9GZU7); experiment: inhibitors of CTDSP1, concentration-response testing, biochemical assay, absorbance-based, actives from ultra-high-throughput screening (AID 540297); assay type: functional
T4 sequence (Q9GZU7 whole entry): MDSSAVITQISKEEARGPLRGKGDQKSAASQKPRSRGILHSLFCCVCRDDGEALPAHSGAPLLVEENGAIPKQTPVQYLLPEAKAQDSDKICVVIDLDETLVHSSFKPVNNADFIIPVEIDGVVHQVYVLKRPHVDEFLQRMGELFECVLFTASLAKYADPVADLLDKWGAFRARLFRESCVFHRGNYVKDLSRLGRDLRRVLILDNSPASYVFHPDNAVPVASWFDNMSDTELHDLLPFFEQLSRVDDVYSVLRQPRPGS

[13] = target: DNA (cytosine-5)-methyltransferase 1 (Homo sapiens, UniProt P26358); experiment: DNMT1 methyltransferase inhibitors, confirmation, biochemical, fluorescent molecular beacon (AID 602386); assay type: functional
[14] = target: T5, Small ubiquitin-related modifier 1 (Homo sapiens, UniProt P63165); experiment: inhibitors of SUMO1 peptide binding, dose response, biochemical, fluorescence polarization, uHTS hits (AID 624382); assay type: functional; conditions: read-out: IC50_Mean
[15] = target: T5, Small ubiquitin-related modifier 1; experiment: inhibitors of SUMO1 partner interactions, dose response, biochemical, FRET (AID 624383); assay type: functional; conditions: read-out: IC50_Mean
[16] = target: T6, Dual specificity protein phosphatase 3 (Homo sapiens, UniProt P51452); experiment: SAR VHR1 absorbance Assay for In Vitro dose response studies. [Related pubchem assays (depositor defined):AID1654, AID1661, AID1878, AID1992, AID2004]
[17] = target: T6, Dual specificity protein phosphatase 3; experiment: SAR VHR1 Fluorescent Assay for In Vitro dose response studies. [Related pubchem assays (depositor defined):AID1654, AID1661, AID1878, AID1992, AID2004, AID2070, AID2085]; assay type: functional
[18] = target: T7, Tyrosine-protein phosphatase non-receptor type 7 (Homo sapiens, UniProt P35236); experiment: redox-dependent HePTP inhibition, mechanism study, biochemical, fluorescence (AID 2068); assay type: functional
T7 sequence (P35236 whole entry): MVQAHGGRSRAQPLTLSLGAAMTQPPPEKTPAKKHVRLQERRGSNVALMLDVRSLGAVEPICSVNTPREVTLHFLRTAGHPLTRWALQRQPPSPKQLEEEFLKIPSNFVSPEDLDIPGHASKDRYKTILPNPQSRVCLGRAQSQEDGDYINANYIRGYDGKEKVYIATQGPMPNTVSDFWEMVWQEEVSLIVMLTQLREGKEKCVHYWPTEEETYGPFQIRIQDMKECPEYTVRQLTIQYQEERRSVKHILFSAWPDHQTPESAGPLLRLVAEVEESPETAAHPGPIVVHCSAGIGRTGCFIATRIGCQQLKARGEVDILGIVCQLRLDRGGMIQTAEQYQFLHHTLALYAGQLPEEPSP

[19] = target: Dual specificity protein phosphatase 6 (Rattus norvegicus, UniProt Q64346); assay type: functional;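 note: confirmatory in vitro dose-response testing of MKP-3 inhibition; recombinant His-tagged MKP-3 made in E. coli BL21 with OMFP substrate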
[20] = target: Voltage-gated inwardly rectifying potassium channel KCNH2 (Homo sapiens, UniProt Q12809); conditions: Potency;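 note: confirmatory quantitative high-throughput screen measuring inhibition of hERG channel activity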
INS1 [21] = experiment: inhibitors of cytokine-induced nitrite release, dose response, cell-based, Griess absorbance, INS-1E, dry powder (AID 488866); assay type: functional; conditions: Rattus norvegicus

T5 sequence (P63165 whole entry): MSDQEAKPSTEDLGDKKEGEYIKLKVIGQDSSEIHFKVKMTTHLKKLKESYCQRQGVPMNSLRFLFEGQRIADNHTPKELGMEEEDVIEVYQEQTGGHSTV
T6 sequence (P51452 whole entry): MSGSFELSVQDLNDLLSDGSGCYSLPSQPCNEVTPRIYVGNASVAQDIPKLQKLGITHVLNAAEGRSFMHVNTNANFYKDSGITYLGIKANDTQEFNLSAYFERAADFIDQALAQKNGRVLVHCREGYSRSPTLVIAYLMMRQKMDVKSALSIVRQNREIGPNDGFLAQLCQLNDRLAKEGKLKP
Chain of Bifunctional protein GlmU (P9WMN3 whole entry): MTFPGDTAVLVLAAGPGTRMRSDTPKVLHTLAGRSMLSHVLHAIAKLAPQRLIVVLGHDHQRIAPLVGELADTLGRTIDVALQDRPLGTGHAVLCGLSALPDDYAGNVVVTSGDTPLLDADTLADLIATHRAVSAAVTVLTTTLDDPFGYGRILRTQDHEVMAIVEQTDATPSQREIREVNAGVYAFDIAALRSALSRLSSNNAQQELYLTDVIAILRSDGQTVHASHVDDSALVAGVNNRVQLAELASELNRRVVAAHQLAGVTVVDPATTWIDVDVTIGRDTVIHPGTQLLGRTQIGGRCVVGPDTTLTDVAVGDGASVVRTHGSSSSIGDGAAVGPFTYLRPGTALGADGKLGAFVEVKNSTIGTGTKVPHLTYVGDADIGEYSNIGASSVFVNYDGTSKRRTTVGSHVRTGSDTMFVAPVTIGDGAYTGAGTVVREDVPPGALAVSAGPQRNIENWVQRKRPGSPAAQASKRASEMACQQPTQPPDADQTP
Chain of DNA dC->dU-editing enzyme APOBEC-3G (Q9HC16 whole entry): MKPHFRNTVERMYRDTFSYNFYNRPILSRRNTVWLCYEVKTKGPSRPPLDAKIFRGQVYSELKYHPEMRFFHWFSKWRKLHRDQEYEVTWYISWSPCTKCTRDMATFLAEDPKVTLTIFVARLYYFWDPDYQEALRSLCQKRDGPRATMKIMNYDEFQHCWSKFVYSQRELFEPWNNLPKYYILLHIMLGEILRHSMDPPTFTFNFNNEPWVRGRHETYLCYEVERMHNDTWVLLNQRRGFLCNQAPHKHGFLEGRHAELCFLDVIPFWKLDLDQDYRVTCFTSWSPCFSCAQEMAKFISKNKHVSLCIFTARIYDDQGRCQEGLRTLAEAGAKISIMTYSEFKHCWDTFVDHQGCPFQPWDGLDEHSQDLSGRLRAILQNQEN
Chain of DNA dC->dU-editing enzyme APOBEC-3A (P31941 whole entry): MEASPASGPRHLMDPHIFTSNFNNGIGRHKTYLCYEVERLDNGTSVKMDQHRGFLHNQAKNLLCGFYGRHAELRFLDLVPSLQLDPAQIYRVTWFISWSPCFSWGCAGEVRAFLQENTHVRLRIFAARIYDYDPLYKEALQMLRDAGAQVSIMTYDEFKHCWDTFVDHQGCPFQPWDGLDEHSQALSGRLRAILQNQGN
Chain of Voltage-gated inwardly rectifying potassium channel KCNH2 (Q12809 whole entry): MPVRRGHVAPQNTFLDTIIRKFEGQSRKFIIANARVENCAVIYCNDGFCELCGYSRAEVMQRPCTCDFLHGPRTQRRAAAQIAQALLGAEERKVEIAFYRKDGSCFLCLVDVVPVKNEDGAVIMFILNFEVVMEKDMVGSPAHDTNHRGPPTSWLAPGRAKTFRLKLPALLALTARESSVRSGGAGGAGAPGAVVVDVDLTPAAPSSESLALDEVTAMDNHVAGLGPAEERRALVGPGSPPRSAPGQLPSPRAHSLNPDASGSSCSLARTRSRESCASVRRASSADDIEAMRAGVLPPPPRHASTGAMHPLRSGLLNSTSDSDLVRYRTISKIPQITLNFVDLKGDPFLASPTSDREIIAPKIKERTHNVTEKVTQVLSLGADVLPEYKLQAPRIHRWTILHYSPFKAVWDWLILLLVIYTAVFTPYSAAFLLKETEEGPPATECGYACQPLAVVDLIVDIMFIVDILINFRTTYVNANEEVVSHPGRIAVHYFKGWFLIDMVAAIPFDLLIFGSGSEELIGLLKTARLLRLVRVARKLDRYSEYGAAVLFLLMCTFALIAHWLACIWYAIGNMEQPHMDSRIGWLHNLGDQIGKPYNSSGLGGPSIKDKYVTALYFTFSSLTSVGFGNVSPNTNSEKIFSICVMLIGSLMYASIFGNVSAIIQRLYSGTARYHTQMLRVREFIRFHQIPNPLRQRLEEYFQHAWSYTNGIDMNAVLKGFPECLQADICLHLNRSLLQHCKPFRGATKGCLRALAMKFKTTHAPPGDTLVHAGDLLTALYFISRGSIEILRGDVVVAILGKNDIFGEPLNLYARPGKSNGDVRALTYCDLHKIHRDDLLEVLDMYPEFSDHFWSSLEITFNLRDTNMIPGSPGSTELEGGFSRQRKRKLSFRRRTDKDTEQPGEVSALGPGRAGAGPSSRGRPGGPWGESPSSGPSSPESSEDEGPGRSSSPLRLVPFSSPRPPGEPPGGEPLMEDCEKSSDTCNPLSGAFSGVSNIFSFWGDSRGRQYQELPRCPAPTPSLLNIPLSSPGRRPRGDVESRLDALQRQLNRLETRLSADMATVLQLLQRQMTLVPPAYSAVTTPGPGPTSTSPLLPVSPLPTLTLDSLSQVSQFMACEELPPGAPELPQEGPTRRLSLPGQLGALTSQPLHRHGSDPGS
Chain of DNA (cytosine-5)-methyltransferase 1 (P26358 whole entry): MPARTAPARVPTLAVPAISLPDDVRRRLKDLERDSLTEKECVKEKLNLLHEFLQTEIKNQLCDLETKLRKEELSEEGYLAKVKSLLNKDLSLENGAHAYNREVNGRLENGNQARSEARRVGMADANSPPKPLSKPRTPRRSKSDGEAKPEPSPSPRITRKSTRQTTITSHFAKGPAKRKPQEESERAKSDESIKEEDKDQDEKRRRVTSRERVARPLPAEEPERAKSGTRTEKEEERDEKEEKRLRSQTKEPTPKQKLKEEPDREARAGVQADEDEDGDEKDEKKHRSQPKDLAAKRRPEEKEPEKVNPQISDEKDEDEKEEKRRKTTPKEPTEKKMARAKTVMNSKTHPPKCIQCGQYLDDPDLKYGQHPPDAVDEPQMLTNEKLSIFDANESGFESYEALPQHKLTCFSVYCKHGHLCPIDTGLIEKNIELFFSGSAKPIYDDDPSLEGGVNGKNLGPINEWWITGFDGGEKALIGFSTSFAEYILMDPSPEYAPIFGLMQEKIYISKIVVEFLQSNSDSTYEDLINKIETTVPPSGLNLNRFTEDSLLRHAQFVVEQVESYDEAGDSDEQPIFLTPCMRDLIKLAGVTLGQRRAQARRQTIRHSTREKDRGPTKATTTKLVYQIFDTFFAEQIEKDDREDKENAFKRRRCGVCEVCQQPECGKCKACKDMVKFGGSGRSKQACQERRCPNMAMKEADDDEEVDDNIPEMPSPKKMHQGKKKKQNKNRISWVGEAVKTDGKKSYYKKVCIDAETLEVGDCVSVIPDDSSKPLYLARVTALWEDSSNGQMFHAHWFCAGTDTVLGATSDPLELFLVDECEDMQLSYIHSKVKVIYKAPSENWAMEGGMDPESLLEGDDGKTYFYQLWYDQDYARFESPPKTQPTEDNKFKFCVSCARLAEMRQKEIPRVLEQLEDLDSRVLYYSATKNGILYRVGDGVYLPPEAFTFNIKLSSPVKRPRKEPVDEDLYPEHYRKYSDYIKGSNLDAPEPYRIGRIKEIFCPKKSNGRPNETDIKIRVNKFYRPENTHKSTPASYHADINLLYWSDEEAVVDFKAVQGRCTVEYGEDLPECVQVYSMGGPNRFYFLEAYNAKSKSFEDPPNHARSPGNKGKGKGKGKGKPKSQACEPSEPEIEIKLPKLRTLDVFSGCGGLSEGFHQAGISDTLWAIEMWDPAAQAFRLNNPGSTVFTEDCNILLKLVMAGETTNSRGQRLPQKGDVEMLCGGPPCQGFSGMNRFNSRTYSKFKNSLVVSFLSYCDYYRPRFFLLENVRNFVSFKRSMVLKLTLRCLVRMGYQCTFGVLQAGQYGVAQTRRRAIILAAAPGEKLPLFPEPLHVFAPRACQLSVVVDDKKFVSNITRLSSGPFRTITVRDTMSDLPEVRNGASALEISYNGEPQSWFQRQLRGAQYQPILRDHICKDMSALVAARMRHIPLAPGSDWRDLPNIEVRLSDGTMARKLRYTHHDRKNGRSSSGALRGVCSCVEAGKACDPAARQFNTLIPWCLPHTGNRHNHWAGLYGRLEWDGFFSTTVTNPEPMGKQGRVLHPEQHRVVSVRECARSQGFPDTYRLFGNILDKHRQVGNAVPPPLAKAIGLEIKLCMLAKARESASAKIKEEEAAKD
Chain of Dual specificity protein phosphatase 6 (Q64346 whole entry): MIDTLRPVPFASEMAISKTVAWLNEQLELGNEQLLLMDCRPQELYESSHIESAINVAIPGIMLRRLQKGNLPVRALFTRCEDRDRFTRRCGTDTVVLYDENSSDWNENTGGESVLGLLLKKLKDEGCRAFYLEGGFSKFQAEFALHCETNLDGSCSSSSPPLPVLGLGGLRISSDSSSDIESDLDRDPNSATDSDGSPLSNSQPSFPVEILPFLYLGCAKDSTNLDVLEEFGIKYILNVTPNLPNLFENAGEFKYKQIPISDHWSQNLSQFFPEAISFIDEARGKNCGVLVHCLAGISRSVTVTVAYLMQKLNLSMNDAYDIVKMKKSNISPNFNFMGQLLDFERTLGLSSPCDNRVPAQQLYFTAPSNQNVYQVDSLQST

SMILES: CCC(C)(C)c1ccc(OCCCC[n+]2ccc(C)cc2)c(C(C)(C)CC)c1
- EC50 [1]: > 160 µM (inactive)
- EC50 [2]: 344 nM (active)
- CC50 [3]: > 40 µM (active)
- IC50 (Bcl-2-related protein A1): > 20 µM (inactive)
- IC50 (Jurkat): 4.32 µM (active)
- IC50 [4]: 12.6 µM (active)
- IC50 [5]: 62.2 µM (inactive)
- IC50 [6]: > 20 µM (inactive)
- AC50 (INS1 [7]): 1.26 µM (active)

SMILES: C=C(C)C(=O)Nc1cccc(C2=NOC3(C2)C[C@H](C(N)=O)N(C(=O)COc2ccc(Cl)cc2)C3)c1 (stereo partly drawn)
- IC50 [8]: 118 µM (active)
- IC50 [9]: > 100 µM (inactive)
- IC50 [10]: 7.21 µM (active)
- EC50 [11]: 4.23 µM (active)
- IC50 [12]: 3.74 µM (active)
- IC50 [13]: 5.52 µM (active)
- IC50 [14]: > 66.6 µM (inactive)
- IC50 [15]: 1.94 µM (active)

SMILES: S=C(NC1CCCCC1)c1cn(CCOc2ccccc2)c2ccccc12
- IC50 [16]: > 100 µM (inactive)
- IC50 [17]: > 100 µM (inactive)
- IC50 [18]: > 100 µM (inactive)
- IC50 [19]: > 100 µM (inactive)

SMILES: c1ccc(P(c2ccccc2)c2ccccc2)cc1
- AC50 [20]: 14.1 µM (inconclusive)

SMILES: COc1ccc(S(=O)(=O)N(C)C[C@@H]2Oc3c(NC(=O)NC4CCCc5ccccc54)cccc3C(=O)N([C@@H](C)CO)C[C@H]2C)cc1 (stereo partly drawn)
- AC50 (INS1 [21]): 124 µM (active)

Source: ChEMBL document CHEMBL1201862, “PubChem BioAssay data set” (2004)
